{"source": "patent US12178809B2", "about": "“Pyridinyl sulfonamide derivatives, pharmaceutical compositions and uses thereof” (Boehringer Ingelheim International GmbH, priority 2018, dated 2024)", "key": {"[1]": {"biological_target": "human AOC3 enzyme (Homo sapiens (Human), UniProt Q16853)", "sequence (Q16853 whole entry)": "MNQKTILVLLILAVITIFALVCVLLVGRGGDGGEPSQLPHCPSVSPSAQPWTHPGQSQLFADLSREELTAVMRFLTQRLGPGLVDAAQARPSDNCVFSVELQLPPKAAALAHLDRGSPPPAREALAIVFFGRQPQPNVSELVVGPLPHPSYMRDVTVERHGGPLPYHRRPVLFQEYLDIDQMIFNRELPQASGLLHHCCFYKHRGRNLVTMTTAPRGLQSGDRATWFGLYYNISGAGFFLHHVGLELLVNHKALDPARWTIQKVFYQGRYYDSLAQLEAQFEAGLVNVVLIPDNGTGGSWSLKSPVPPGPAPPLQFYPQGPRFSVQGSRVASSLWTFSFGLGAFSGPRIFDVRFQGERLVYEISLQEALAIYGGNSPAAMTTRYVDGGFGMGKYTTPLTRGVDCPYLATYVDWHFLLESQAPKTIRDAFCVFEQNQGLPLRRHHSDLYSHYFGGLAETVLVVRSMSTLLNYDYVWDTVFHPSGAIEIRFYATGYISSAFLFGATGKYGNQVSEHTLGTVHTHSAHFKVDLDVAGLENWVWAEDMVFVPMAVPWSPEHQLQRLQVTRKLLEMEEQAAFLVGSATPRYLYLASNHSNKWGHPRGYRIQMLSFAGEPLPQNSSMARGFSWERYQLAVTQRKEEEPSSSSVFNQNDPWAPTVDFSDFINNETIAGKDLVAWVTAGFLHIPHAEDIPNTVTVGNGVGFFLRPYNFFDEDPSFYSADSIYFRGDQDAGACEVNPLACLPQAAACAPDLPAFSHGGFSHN", "experiment": "AOC3 biochemical assay (MAO-Glo)", "details": "read-out: AOC3 IC50", "from_the_text": "The MAO-Glo™ Assay (commercially available from PROMEGA, #V1402) provides a sensitive method for the measurement of monoamine oxidase (MAO) activity (Valley, M. P. et al., 2006, Anal. Biochem. 359: 238-246) from a variety of tissues, biofluids or recombinant expressed or purified enzymes. As substrate a derivate of the beetle luciferin ((4S)-4,5-dihydro-2-(6-hydroxybenzothiazolyl)-4-thiazole-carboxylic acid) is used, which is oxidized at a primary amine moiety. After a spontaneous elimination and a catalyzed esterase reaction, the turnover of the luciferine by the luciferase is recorded as a signal of AOC3 activity.\nAn aliquot of 3 μL of the compound dilution is added to a 384 well plate (Optiplate, PS, flat bottom, white, PERKIN ELMER, #6007290) with a final DMSO concentration of 6.6%. Recombinant CHO cells, overexpressing the human (1500 cells/well), mouse (1000 cells/well) or rat (500 cells/well) AOC3 enzyme are diluted in reaction buffer and added in a volume of 15 μL to the wells. After incubation for 20 minutes at 37° C., 2 μL of MAO substrate (dissolved in DMSO at 16 mM, adjusted to assay concentration in reaction buffer to a final assay concentration of 20 μM) is added and further incubated for 60 minutes at 37° C. The turnover of the substrate is determined by the addition of 20 μL of the detection-mix which was generated by the addition of reconstitution buffer with esterase (PROMEGA, #V1402) to the luciferine detection reagent (PROMEGA, #V1402). After an incubation period of 20 minutes, the luminescent signal is measured with Envision 2104 Multilabel Reader (PERKIN ELMER)."}, "[2]": {"biological_target": "AOC2 (Homo sapiens (Human), UniProt O75106)", "sequence (O75106 whole entry)": "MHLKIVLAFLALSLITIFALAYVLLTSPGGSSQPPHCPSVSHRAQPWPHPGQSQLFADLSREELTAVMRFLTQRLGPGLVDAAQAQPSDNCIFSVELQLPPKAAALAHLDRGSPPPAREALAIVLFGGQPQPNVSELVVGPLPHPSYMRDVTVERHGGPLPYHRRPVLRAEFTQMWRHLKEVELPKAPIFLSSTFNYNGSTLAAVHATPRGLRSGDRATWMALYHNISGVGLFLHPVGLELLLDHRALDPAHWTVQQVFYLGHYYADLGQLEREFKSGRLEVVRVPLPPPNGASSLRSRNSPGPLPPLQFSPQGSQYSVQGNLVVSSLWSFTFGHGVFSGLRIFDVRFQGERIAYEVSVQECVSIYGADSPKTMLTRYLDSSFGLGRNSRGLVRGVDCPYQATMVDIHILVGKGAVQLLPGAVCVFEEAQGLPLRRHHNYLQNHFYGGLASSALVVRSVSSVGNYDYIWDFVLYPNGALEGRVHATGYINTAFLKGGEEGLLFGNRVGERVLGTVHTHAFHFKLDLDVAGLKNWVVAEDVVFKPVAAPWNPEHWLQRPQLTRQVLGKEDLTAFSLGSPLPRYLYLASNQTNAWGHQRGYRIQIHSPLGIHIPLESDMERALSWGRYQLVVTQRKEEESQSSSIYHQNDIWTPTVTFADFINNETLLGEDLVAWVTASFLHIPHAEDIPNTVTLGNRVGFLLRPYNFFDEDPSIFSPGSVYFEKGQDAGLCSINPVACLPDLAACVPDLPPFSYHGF", "experiment": "AOC2 biochemical assay (Amplex Red)", "details": "for IC50: read-out: AOC2 IC50", "protocol": "An aliquot of 5 μL of the compound dilution is added to a 96 well plate (flat bottom F, black, GREINER bio-one, #655900) in a DMSO concentration of 2%. […] Cells are cultured for 3 days in EMEM culture medium containing 10% FCS (#04-00-1A, Biological Industries). After washing twice with ice cold PBS, cells are lysed by mechanic homogenation and cleared supernatants are shock frozen in liquid nitrogen and stored at -80° C. […] An Aliquot of 45 μL is added to the compound dilution and incubated for 30 min at 37° C. The enzymatic reaction is started with the addition of 50 μL of Amplex® Red reaction mix (final assay concentration: 100 mM sodiumphosphate, 120 μM Amplex® Red reagent (#A22177 Molecular Probes), 1.5 U/mL Horseradish Peroxidase (#P8375 Sigma-Aldrich), 2 mM phenylethylamine (#[…] Sigma-Aldrich), 0.05% Pluronic F-127 (#P3000MP Sigma-Aldrich), pH 7.4, 37° C.). The turnover per time of the substrate is determined directly with a fluorescence reader (Ex 540 nm/Em 590 nm) like Envision 2104 Multilabel Reader (PERKIN ELMER) for 60 min."}, "[3]": {"biological_target": "AOC1 (Homo sapiens (Human), UniProt P19801)", "sequence (P19801 20-751)": "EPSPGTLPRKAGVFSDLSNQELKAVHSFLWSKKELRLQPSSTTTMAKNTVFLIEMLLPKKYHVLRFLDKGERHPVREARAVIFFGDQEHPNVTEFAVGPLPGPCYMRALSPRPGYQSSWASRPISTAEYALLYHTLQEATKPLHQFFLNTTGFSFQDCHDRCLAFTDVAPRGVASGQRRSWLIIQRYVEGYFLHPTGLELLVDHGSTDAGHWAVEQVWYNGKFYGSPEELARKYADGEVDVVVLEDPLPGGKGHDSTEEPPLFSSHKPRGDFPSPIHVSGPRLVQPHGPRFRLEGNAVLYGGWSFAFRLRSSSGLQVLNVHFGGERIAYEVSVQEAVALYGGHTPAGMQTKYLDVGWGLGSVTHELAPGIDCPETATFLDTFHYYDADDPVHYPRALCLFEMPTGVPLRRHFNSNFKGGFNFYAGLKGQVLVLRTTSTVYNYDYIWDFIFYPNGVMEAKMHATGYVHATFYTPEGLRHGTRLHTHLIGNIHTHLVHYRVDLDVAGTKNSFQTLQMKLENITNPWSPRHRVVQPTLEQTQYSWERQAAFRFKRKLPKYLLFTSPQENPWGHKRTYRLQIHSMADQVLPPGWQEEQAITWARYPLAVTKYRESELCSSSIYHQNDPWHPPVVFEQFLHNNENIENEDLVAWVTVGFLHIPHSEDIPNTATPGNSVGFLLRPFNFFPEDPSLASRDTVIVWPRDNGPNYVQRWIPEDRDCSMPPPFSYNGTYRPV", "experiment": "AOC1 biochemical assay (Amplex Red)", "details": "read-out: AOC1 IC50", "protocol": "The Amplex® Red Assay (available from Thermo Fisher Scientific) provides a sensitive method for the detection of H2O2 generated during enzymatic reactions like the amine oxidation catalyzed by AOC1. The assay reagent is a colorless substrate (N-acetyl-3,7-dihydroxyphenoxazine) that reacts in a 1:1 stoichiometry with hydrogen peroxide (H2O2) to produce the fluorescent dye resorufin (7-hydroxyphenoxazin-3-one, excitation/emission maxima=570/585 nm).\nAn aliquot of 3 μL of the compound dilution is added to a 384 well plate (Optiplate, PS, flat bottom F, black, PERKIN ELMER, #6007270) in a DMSO concentration of 6.6%.\nAn AOC1 enzyme aliquot (#8297-AO-010, R&D Systems) is thawed on ice, diluted in reaction buffer and added in a volume of 7 μL to the wells to give a final assay concentration of 1 ng/well. After incubation of inhibitor and enzyme for 30 minutes at 37° C., the enzymatic reaction is started with the addition of 10 μL of Amplex® Red reaction mix (final assay concentration: 100 mM sodiumphosphate, 120 μM Amplex® Red reagent (#A22177 Molecular Probes), 1.5 U/mL Horseradish Peroxidase (#P8375 Sigma-Aldrich), 200 μM putrescine (#P7505 Sigma-Alrdich), 0.05% Pluronic F-127 (#P3000MP Sigma-Aldrich), pH 7.4, 37° C.).\nAfter an incubation for 30 minutes at 37° C. the turnover of the substrate is determined directly (or after the addition of an excess of an amine-oxidase inhibitor) with a fluorescence reader (Ex 540 nm/Em 590 nm) like Envision 2104 Multilabel Reader (PERKIN ELMER)."}}, "note": "Structures can show the parent of a compound that is named as a salt.", "data": [{"smiles": "NC/C(=C\\F)COc1ccc(S(=O)(=O)N2CCC(O)CC2)cn1.O=C(O)C(F)(F)F", "note": "[Example 45]", "values": [{"measurement": "IC50", "setting": "[1]", "value": 0.01, "unit": "µM"}, {"measurement": "fold less active against AOC2 as compared to AOC3 (ratio IC50 AOC2/IC50 AOC3)", "setting": "[2]", "value": "ca. 30 fold"}, {"measurement": "IC50", "setting": "[2]", "value": 0.307, "unit": "µM"}, {"measurement": "IC50", "setting": "[3]", "value": 11.4, "unit": "µM"}]}, {"smiles": "COC1CCN(S(=O)(=O)c2ccc(OC/C(=C/F)CN)nc2)CC1", "note": "[Example 46]", "values": [{"measurement": "IC50", "setting": "[1]", "value": 0.01, "unit": "µM"}, {"measurement": "IC50", "setting": "[2]", "value": 0.234, "unit": "µM"}, {"measurement": "IC50", "setting": "[3]", "value": "> 50", "unit": "µM"}]}, {"smiles": "NC/C(=C\\F)COc1ccc(S(=O)(=O)N2CCCCC2)cn1", "note": "[Example 47]", "values": [{"measurement": "IC50", "setting": "[1]", "value": 0.005, "unit": "µM"}, {"measurement": "IC50", "setting": "[2]", "value": 0.144, "unit": "µM"}, {"measurement": "IC50", "setting": "[3]", "value": 23.2, "unit": "µM"}]}, {"smiles": "CC1(O)CCN(S(=O)(=O)c2ccc(OC/C(=C/F)CN)nc2)CC1", "note": "[Example 48]", "values": [{"measurement": "IC50", "setting": "[1]", "value": 0.024, "unit": "µM"}, {"measurement": "IC50", "setting": "[2]", "value": 0.067, "unit": "µM"}, {"measurement": "IC50", "setting": "[3]", "value": 1.49, "unit": "µM"}]}, {"smiles": "NC/C(=C\\F)COc1ccc(S(=O)(=O)N2CC[C@H](C(N)=O)C2)cn1", "note": "[Example 49]", "values": [{"measurement": "IC50", "setting": "[1]", "value": 0.021, "unit": "µM"}, {"measurement": "IC50", "setting": "[2]", "value": 0.05, "unit": "µM"}, {"measurement": "IC50", "setting": "[3]", "value": "> 50", "unit": "µM"}]}, {"smiles": "NC/C(=C\\F)COc1ccc(S(=O)(=O)N2CCC(O)(C(F)(F)F)CC2)cn1", "note": "[Example 50]", "values": [{"measurement": "IC50", "setting": "[1]", "value": 0.02, "unit": "µM"}, {"measurement": "IC50", "setting": "[2]", "value": 0.024, "unit": "µM"}, {"measurement": "IC50", "setting": "[3]", "value": "> 50", "unit": "µM"}]}, {"smiles": "COC(=O)C1CCN(S(=O)(=O)c2ccc(OC/C(=C/F)CN)nc2)CC1", "note": "[Example 51, 1-[6-((E)-2-Aminomethyl-3-fluoro-allyloxy)-pyridine-3-sulfonyl]-piperidine-4-carboxylic acid methyl ester trifluoroacetate]", "values": [{"measurement": "IC50", "setting": "[1]", "value": 0.013, "unit": "µM"}, {"measurement": "IC50", "setting": "[2]", "value": 0.325, "unit": "µM"}, {"measurement": "IC50", "setting": "[3]", "value": 48, "unit": "µM"}]}, {"smiles": "COC(=O)[C@H]1[C@@H]2CN(S(=O)(=O)c3ccc(OC/C(=C/F)CN)nc3)C[C@@H]21", "note": "[Example 52]", "values": [{"measurement": "IC50", "setting": "[1]", "value": 0.009, "unit": "µM"}, {"measurement": "IC50", "setting": "[2]", "value": 0.315, "unit": "µM"}, {"measurement": "IC50", "setting": "[3]", "value": 41.8, "unit": "µM"}]}, {"smiles": "COC(=O)C1(C)CCN(S(=O)(=O)c2ccc(OC/C(=C/F)CN)nc2)CC1", "note": "[Example 53]", "values": [{"measurement": "IC50", "setting": "[1]", "value": 0.015, "unit": "µM"}, {"measurement": "IC50", "setting": "[2]", "value": 0.019, "unit": "µM"}, {"measurement": "IC50", "setting": "[3]", "value": "> 50", "unit": "µM"}]}, {"smiles": "NC/C(=C\\F)COc1ccc(S(=O)(=O)N2CCC(CC(=O)O)CC2)cn1", "note": "[Example 54, trifluoroacetate]", "values": [{"measurement": "IC50", "setting": "[1]", "value": 0.308, "unit": "µM"}, {"measurement": "IC50", "setting": "[2]", "value": 0.004, "unit": "µM"}, {"measurement": "IC50", "setting": "[3]", "value": "> 50", "unit": "µM"}]}, {"smiles": "NC/C(=C\\F)COc1ccc(S(=O)(=O)N2C[C@@H]3[C@H](C2)[C@H]3C(=O)O)cn1", "note": "[Example 55, trans-3-[6-((E)-2-Aminomethyl-3-fluoro-allyloxy)-pyridine-3-sulfonyl]-3-aza-bicyclo[3.1.0]hexane-6-carboxylic acid trifluoroacetate]", "values": [{"measurement": "IC50", "setting": "[1]", "value": 0.391, "unit": "µM"}, {"measurement": "IC50", "setting": "[2]", "value": 0.05, "unit": "µM"}, {"measurement": "IC50", "setting": "[3]", "value": "> 50", "unit": "µM"}]}, {"smiles": "NC/C(=C\\F)COc1ccc(S(=O)(=O)N2CCC(C(=O)O)CC2)cn1", "note": "[Example 56]", "values": [{"measurement": "IC50", "setting": "[1]", "value": 0.089, "unit": "µM"}, {"measurement": "IC50", "setting": "[2]", "value": 0.034, "unit": "µM"}, {"measurement": "IC50", "setting": "[3]", "value": 34.7, "unit": "µM"}]}, {"smiles": "CC1(C(=O)O)CCN(S(=O)(=O)c2ccc(OC/C(=C/F)CN)nc2)CC1", "note": "[Example 57]", "values": [{"measurement": "IC50", "setting": "[1]", "value": 2.69, "unit": "µM"}, {"measurement": "IC50", "setting": "[2]", "value": 0.006, "unit": "µM"}, {"measurement": "IC50", "setting": "[3]", "value": "> 50", "unit": "µM"}]}, {"smiles": "CC1(C(=O)NC2CCOCC2)CCN(S(=O)(=O)c2ccc(OC/C(=C/F)CN)nc2)CC1", "note": "[Example 58, 1-[6-((E)-2-Aminomethyl-3-fluoro-allyloxy)-pyridine-3-sulfonyl]-4-methyl-piperidine-4-carboxylic acid (tetrahydropyran-4-yl)-amide trifluoroacetate]", "values": [{"measurement": "IC50", "setting": "[1]", "value": 0.114, "unit": "µM"}, {"measurement": "IC50", "setting": "[2]", "value": 0.363, "unit": "µM"}, {"measurement": "IC50", "setting": "[3]", "value": "> 49.9", "unit": "µM"}]}, {"smiles": "NC/C(=C\\F)COc1ccc(S(=O)(=O)N2CCC(CC(N)=O)CC2)cn1", "note": "[Example 60]", "values": [{"measurement": "IC50", "setting": "[1]", "value": 0.021, "unit": "µM"}, {"measurement": "IC50", "setting": "[2]", "value": 0.092, "unit": "µM"}, {"measurement": "IC50", "setting": "[3]", "value": "> 50", "unit": "µM"}]}, {"smiles": "CC1(C(N)=O)CCN(S(=O)(=O)c2ccc(OC/C(=C/F)CN)nc2)CC1", "note": "[Example 61]", "values": [{"measurement": "IC50", "setting": "[1]", "value": 0.026, "unit": "µM"}, {"measurement": "IC50", "setting": "[2]", "value": 0.061, "unit": "µM"}, {"measurement": "IC50", "setting": "[3]", "value": "> 50", "unit": "µM"}]}]}
